# Patent publication US12060349B2, “Glucosylceramide synthase inhibitors” (Genzyme Corporation, priority 2012, dated 2024)
# Assays:
# [1] = tested on: B16 mouse melanoma cells; test: cell viability in the B16 cell-based assay (Viability, B16 IC50); details: Mus musculus, B16, B16 cells; concentration causing 50% cell death; values greater than 10 represent a lack of cell death; read-out: Viability, B16 IC50
# Summary of the method: (§1)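 Viability readouts were run alongside the GM3 cell-surface assay in the same B16 and C32 cultures. A figure above 10 indicates no cell death.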
# [2] = tested on: GM3 expression on the cell surface, C32 human melanoma cells; test: cell based phenotypic assay, cell surface GM3 by antibody mediated immunofluorescence, C32 (GM3 C32 IC50); details: Homo sapiens, C32 human melanoma cells; 50% inhibition of GM3 expression on the cell surface; read-out: GM3 C32 IC50
# Summary of the method: (§2)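 Both lines undergo the phenotypic GM3 assay, and viability is recorded from that same cell-based run.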
# [3] = tested on: GM3 expression on the cell surface, B16 mouse melanoma cells; test: cell based phenotypic assay, cell surface GM3 by antibody mediated immunofluorescence, B16 (GM3 B16 IC50); details: Mus musculus, B16 mouse melanoma cells; 50% inhibition of GM3 expression on the cell surface; read-out: GM3 B16 IC50
# Summary of the method: as §2
# [4] = target: T1, glucosylceramide synthase (Homo sapiens, UniProt Q16739); test: microsomal assay measuring conversion of ceramide to glucosylceramide by HPLC (GCS IC50); assay type: biochemical; details: concentration causing 50% inhibition of glucosylceramide synthase activity
# T1 construct: Microsomes were isolated from A375 human melanoma cells; endogenous in cells; host or cells: A375 human melanoma cells (microsomal fraction, 100,000 g pellet)
# T1 sequence (Q16739 1-394): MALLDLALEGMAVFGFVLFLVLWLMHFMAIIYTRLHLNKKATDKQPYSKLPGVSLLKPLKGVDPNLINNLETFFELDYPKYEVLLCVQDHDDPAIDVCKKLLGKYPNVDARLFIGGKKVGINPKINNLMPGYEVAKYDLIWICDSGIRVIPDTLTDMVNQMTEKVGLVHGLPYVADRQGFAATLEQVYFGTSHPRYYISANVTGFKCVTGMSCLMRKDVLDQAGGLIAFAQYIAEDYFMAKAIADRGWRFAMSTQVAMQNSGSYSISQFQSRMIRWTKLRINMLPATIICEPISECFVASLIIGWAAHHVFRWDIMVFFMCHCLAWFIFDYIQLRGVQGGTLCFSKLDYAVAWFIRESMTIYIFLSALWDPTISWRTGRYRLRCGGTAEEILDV
# Summary of the method: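 IC50 is the compound concentration halving glucosylceramide synthase activity. Activity was measured in microsomes, with HPLC quantifying glucosylceramide formed from ceramide.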
# [5] = tested on: C32 human melanoma cells; test: cell viability in the C32 cell-based assay (Viability, C32 IC50); details: Homo sapiens, C32, C32 cells; concentration causing 50% cell death; values greater than 10 represent a lack of cell death; read-out: Viability, C32 IC50
# Summary of the method: as §1
SMILES,IC50 [2],IC50 [3],IC50 [4],IC50 [1],IC50 [5]
"COCCOCc1ccc(-c2ccnc(N3CCC(F)(C(=O)NC4(C)CCN5CCC4CC5)CC3)n2)cc1 (stereo not drawn) [Example 89, 4-Fluoro-1-(4-(4-((2-methoxyethoxy)methyl)phenyl)pyrimidin-2-yl)-N-(4-methyl-1-azabicyclo[3.2.2]nonan-4-yl)piperidine-4-carboxamide]",1.17 nM,109 nM,8.23 nM,9470 nM,316 nM
"CC1(NC(=O)C2(F)CCN(c3nccc(-c4ccc(OCCF)cc4)n3)CC2)CN2CCC1CC2 (stereo not drawn) [Example 92, 4-Fluoro-1-(4-(4-(2-fluoroethoxy)phenyl)pyrimidin-2-yl)-N-(3-methylquinuclidin-3-yl)piperidine-4-carboxamide]",0.106 nM,29 nM,1.46 nM,6830 nM,100 nM
"COCCOc1ccc(-c2ccnc(N3CCC(F)(C(=O)NC4(C)CCN5CCC4CC5)CC3)n2)cc1 (stereo not drawn) [Example 93, 4-Fluoro-1-(4-(4-(2-methoxyethoxy)phenyl)pyrimidin-2-yl)-N-(4-methyl-1-azabicyclo[3.2.2]nonan-4-yl)piperidine-4-carboxamide]",0.261 nM,43.9 nM,3.96 nM,3960 nM,316 nM
"CC1(NC(=O)C2(F)CCN(c3nccc(-c4ccc(F)cc4)n3)CC2)CN2CCC1CC2 (stereo not drawn) [Example 95, 4-Fluoro-1-(4-(4-fluorophenyl)pyrimidin-2-yl)-N-(3-methylquinuclidin-3-yl)piperidine-4-carboxamide]",0.0836 nM,20 nM,0.585 nM,4690 nM,31.6 nM

# Further lines, with some results ahead:
IC50 [2],IC50 [3],IC50 [4],SMILES,IC50 [1],IC50 [5]
0.0953 nM,13.4 nM,2.26 nM,"CC1(NC(=O)C2(F)CCN(c3nccc(-c4ccc(OCCF)cc4)n3)CC2)CCN2CCC1CC2 (stereo not drawn) [Example 90, 4-Fluoro-1-(4-(4-(2-fluoroethoxy)phenyl)pyrimidin-2-yl)-N-(4-methyl-1-azabicyclo[3.2.2]nonan-4-yl)piperidine-4-carboxamide]",3060 nM,215 nM
0.117 nM,71.4 nM,2.04 nM,"COCCOc1ccc(-c2nc(N3CCC(F)(C(=O)NC4(C)CCN5CCC4CC5)CC3)ncc2F)cc1 (stereo not drawn) [Example 91, 4-Fluoro-1-(5-fluoro-4-(4-(2-methoxyethoxy)phenyl)pyrimidin-2-yl)-N-(4-methyl-1-azabicyclo[3.2.2]nonan-4-yl)piperidine-4-carboxamide]",2660 nM,100 nM
0.0964 nM,14.4 nM,0.736 nM,"CC1(NC(=O)C2(F)CCN(c3nccc(-c4ccc(F)cc4)n3)CC2)CCN2CCC1CC2 (stereo not drawn) [Example 94, 4-Fluoro-1-(4-(4-fluorophenyl)pyrimidin-2-yl)-N-(4-methyl-1-azabicyclo[3.2.2]nonan-4-yl)piperidine-4-carboxamide]",2100 nM,46.4 nM
0.804 nM,145 nM,7 nM,"COCc1ccc(-c2ccnc(N3CCC(C)(C(=O)NC4(C)CCN5CCC4CC5)CC3)n2)cc1 (stereo not drawn) [Example 96, 1-(4-(4-(Methoxymethyl)phenyl)pyrimidin-2-yl)-4-methyl-N-(4-methyl-1-azabicyclo[3.2.2]nonan-4-yl)piperidine-4-carboxamide]",3390 nM,1000 nM
1.36 nM,285 nM,13.4 nM,"COCCOCc1ccc(-c2ccnc(N3CCC(C)(C(=O)NC4(C)CCN5CCC4CC5)CC3)n2)cc1 (stereo not drawn) [Example 97, 1-(4-(4-((2-Methoxyethoxy)methyl)phenyl)pyrimidin-2-yl)-4-methyl-N-(4-methyl-1-azabicyclo[3.2.2]nonan-4-yl)piperidine-4-carboxamide]",≥ 10000 nM,1000 nM
